From patent publication US20070134326A1, “Composition for releasing a weak base for an extended period of time” (priority 2003, published 2007)

Assays:
pH dependent solubility = format: physicochemical; conditions: around pH 2 vs around pH 7
glucose utilization = conditions: PK/PD model estimate, diabetic patients; FDA Briefing Document, Avandia IND 43,468; cited from earlier work

CN(CCOc1ccc(CC2SC(=O)NC2=O)cc1)c1ccccn1 (centres unmarked) [Compound A, 5-[4-[2-(N-methyl-N-(2pyridyl)amino)ethoxy]benzyl]thiazolidine-2,4-dione]
pH dependent solubility (pH dependent solubility): more soluble in the acidic conditions of the stomach (around pH 2) than in the near neutral conditions of the lower intestine (around pH 7) | concentration associated with half-maximal stimulation (SC50) of glucose utilization (glucose utilization): ~52 ng/mL
